In article PMC10895678 (Journal of Medicinal Chemistry, 2024):
Converted amounts (≈) assume the structure as drawn. Read-outs that look alike come from different tables or passages of the source.

Experiments:
M. smegmatis = assay: MIC determination, resazurin end point assay, M. smegmatis; type: cell-based, Mycobacterium smegmatis; conditions: Mycolicibacterium smegmatis; for MIC50: read-out: MIC50 smegmatis
M. bovis BCG = assay: microbe, parasite or virus in culture; type: cell-based; conditions: Mycobacterium tuberculosis variant bovis BCG, read-out: BCG MBC
[1] = Mouse microsomal clearance; type: in vitro ADME; conditions: 0.5 mg/mL mouse microsomes
Experimental: Compounds were solubilized (10 mM in DMSO). 1 μM of BGAz compound was incubated with 0.5 mg/mL mouse microsomes in the presence or absence of the Phase 1 cofactor NADPH (1 mM) at 37 °C for 0, 5, 10, 15, and 30 min. The disappearance of the BGAz compound was assessed by LC-MS/MS. All experiments were performed with two replicates per compound and were validated by the inclusion of up to three species-specific control compounds. Data output consists of mean intrinsic clearance (CLint) and half-life (t1/2) measurements.

[2] = HepG2 mitochondrial dysfunction (Glu/Gal cytotoxicity, MTT); type: cell-based; conditions: human, HepG2 cells, 24 h, MTT
Experimental: Compounds were solubilized to 30 mM in DMSO. The BGAz compounds were added to the HepG2 cell model in a 96-well microplate in half log dilutions from 100–0.0003 μM (final DMSO concentration 0.3%) using both glucose (DMEM consisting of 25 mM glucose) and galactose (DMEM consisting of 10 mM galactose) media. The compounds were incubated with the cell line for 24 h at 37 °C in a humidified CO2 tissue culture incubator, followed by cell viability staining with MTT (3-(4,5-dimethylthiazol-2-yl)-2.5-diphenyltetrazolium bromide) conversion to the Formazan product, determined by absorbance measurement. The cell viability IC50 was determined in HepG2 glucose and metabolism-modified HepG2 galactose, and the fold change difference between the Glu/Gal IC50 was determined. All experiments were performed in duplicate with the mitochondrial toxicity controls rotenone and Antimycin A and the cytotoxin control tamoxifen.

hERG = hERG (Homo sapiens, UniProt Q12809); assay: cell-based; type: cell-based; conditions: for IC50: CHO cells expressing hERG, eight-point curve
Experimental: Compounds were solubilized to 30 mM in DMSO before dilution in PBS to […]. […] Eight-point concentration–response curves were generated using 3.16-fold serial dilutions from the top test concentration. Electrophysiological recordings were made from a Chinese Hamster Ovary cell line stably expressing the full length hERG channel. Single cell ionic currents were measured in the perforated patch clamp configuration (100 μg mL^–1 amphotericin) at room temperature (21–23 °C) using an IonWorks Quattro instrument (Molecular Devices). The internal solution contained (mM) 140 KCl, 1 MgCl2, 1 EGTA, and 20 HEPES and was buffered to pH 7.3. The external solution [PBS contained (mM): 138 NaCl, 2.7 KCl, 0.9 CaCl2, 0.5 MgCl2, 8 Na2HPO4, and 1.5 KH2PO4 buffered to pH 7.4]. Cells were clamped at a holding potential of −70 mV for 30 s and then stepped to +40 mV for one second. This was followed by a hyperpolarising step of 1 s to −30 mV to evoke the hERG tail current. Currents were measured from the tail step and referenced to the holding current. Compounds were then incubated for 3–4 min prior to a second measurement of the hERG signal using an identical pulsetrain.

C. glutamicum = assay: MIC, resazurin assay, C. glutamicum wild type; type: cell-based, Corynebacterium glutamicum; conditions: for C. glutamicum MIC: modified Gompertz function; for MIC50 C. glutamicum / MIC99 C. glutamicum: supplementary MIC data file
[3] = resazurin end point assay, modified Gompertz function, three biological replicates, read-out: M. smeg. MIC99
[4] = supplementary MIC data file, read-out: MIC99 smegmatis
[5] = galactose medium, read-out: HepG2 Cytotoxicity IC50, Gal
[6] = glucose medium, read-out: HepG2 Cytotoxicity IC50, Glu

Chain of hERG (Q12809 whole entry): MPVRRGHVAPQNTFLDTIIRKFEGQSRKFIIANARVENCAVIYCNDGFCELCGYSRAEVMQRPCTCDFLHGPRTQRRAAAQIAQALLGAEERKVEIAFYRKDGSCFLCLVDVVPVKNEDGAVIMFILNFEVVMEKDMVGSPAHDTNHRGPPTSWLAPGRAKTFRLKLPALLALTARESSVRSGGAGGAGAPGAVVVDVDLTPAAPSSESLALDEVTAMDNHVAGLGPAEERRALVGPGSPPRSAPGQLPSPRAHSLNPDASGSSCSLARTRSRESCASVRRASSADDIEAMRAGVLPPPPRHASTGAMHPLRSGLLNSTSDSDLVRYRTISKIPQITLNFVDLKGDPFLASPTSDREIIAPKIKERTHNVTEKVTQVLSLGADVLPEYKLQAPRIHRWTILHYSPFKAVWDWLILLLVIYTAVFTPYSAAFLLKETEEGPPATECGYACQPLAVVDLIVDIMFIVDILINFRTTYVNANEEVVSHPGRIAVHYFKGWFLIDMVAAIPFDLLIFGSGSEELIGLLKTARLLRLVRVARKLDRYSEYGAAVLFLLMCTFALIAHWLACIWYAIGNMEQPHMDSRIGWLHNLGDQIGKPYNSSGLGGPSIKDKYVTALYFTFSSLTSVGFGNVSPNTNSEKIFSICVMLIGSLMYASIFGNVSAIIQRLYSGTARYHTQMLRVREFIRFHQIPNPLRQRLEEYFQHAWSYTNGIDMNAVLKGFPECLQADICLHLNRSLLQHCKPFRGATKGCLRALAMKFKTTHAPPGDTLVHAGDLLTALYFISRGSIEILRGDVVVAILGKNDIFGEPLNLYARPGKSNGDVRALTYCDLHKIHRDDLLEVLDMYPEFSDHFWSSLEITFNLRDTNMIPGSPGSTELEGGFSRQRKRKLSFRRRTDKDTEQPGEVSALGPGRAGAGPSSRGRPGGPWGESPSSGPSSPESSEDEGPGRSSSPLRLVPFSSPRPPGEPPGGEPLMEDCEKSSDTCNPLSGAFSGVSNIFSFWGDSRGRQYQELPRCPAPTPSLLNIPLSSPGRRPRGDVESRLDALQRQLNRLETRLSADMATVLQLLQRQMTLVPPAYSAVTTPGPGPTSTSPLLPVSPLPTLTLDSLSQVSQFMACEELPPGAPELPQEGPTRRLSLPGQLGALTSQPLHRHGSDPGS

| Compound | MIC99 (M. smegmatis; [3]) [µM] | MIC50 (M. smegmatis; supplementary MIC data file) [µM] | MIC99 (M. smegmatis; [4]) [µM] | MBC (M. bovis BCG) [µM] | microsomal CLint at 1 μM [1] [µL/min/mg] | IC50 at 24 h [2, 5] [µM] | IC50 at 24 h [2, 6] [µM] | IC50 (hERG) [µM] | C. glutamicum MIC (C. glutamicum) [µM] | MIC50 (M. smegmatis) [µM] | MIC99 (M. smegmatis; read-out: MIC99 smegmatis) [µM] | IC50 (hERG; human, CHO cells stably expressing hERG, pH 7.4) [µM] | inhibition at 167 µM (hERG; human, pH 7.4, 167 μM, read-out: hERG inhibition at top test concentration) [%] | MIC50 C. glutamicum (C. glutamicum) [µM] | MIC99 C. glutamicum (C. glutamicum) [µM] |
| --- | --- | --- | --- | --- | --- | --- | --- | --- | --- | --- | --- | --- | --- | --- | --- |
| CNCC1CC(c2ccc(OC(F)(F)F)cc2)N1Cc1ccccc1OC(F)(F)F (centres unmarked) [BGAz-005] | 24 (≈ 10.4 µg/mL) | 9 (≈ 3.91 µg/mL) | 24 (≈ 10.4 µg/mL) | 12 to 25 (≈ 5.21 to 10.9 µg/mL) | 36 | 23 | 21 | 12.7 | 12 | – | – | – | – | – | – |
| FC(F)(F)Oc1ccc(C2CC(CN3CCCC3)N2Cc2ccccc2OC(F)(F)F)cc1 (centres unmarked) [BGAz-002] | 32 (≈ 15.2 µg/mL) | – | – | 12 to 25 (≈ 5.69 to 11.9 µg/mL) | 166 | 65 | 38 | – | 50 | 49 (≈ 23.2 µg/mL) | 62 (≈ 29.4 µg/mL) | > 167 | < 50 | 43 (≈ 20.4 µg/mL) | 49 (≈ 23.2 µg/mL) |
| Brc1cc(Br)cc(C2CC(CN3CCCC3)N2Cc2ccccc2Br)c1 (centres unmarked) [BGAz-004] | 14 (≈ 7.6 µg/mL) | 6 (≈ 3.26 µg/mL) | 14 (≈ 7.6 µg/mL) | 12 to 25 (≈ 6.52 to 13.6 µg/mL) | 192 | > 100 | > 100 | 25 | 20 | – | – | – | – | 12 (≈ 6.52 µg/mL) | 12 (≈ 6.52 µg/mL) |
